Reference: PubChem BioAssay (NCI)
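48-hour exposure; five concentrations; linearly interpolated endpoints. GI50 = concentration required for 50% inhibition of growth. TGI is the concentration that stops growth completely.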

What was measured:
Assay in all cases: growth of human tumour cells (NCI), 48 h; in the data active = GI50 below about 0.43 µM; inactive = the rest
T-47D breast = system: T-47D breast
A549 NSCLC = system: A549 NSCLC
SK-OV-3 ovarian = system: SK-OV-3 ovarian
PC-3 prostate = system: PC-3 prostate
LOX IMVI melanoma = system: LOX IMVI melanoma
CAKI-1 renal = system: CAKI-1 renal
SNB-19 CNS = system: SNB-19 CNS
NCI/ADR-RES ovarian = system: NCI/ADR-RES ovarian
SR leukemia = system: SR leukemia
DU-145 prostate = system: DU-145 prostate
SF-295 CNS = system: SF-295 CNS
BT-549 breast = system: BT-549 breast
MDA-MB-435 = system: MDA-MB-435
A498 renal = system: A498 renal
KM12 colon = system: KM12 colon
HOP-92 NSCLC = system: HOP-92 NSCLC
OVCAR-8 ovarian = system: OVCAR-8 ovarian
M14 melanoma = system: M14 melanoma
TK-10 renal = system: TK-10 renal
U251 CNS = system: U251 CNS
HCT-116 colon = system: HCT-116 colon
COLO 205 colon = system: COLO 205 colon
RPMI-8226 leukemia = system: RPMI-8226 leukemia
NCI-H522 lung = system: NCI-H522 lung
NCI-H226 lung = system: NCI-H226 lung
MCF7 breast = system: MCF7 breast
NCI-H460 lung = system: NCI-H460 lung
MOLT-4 leukemia = system: MOLT-4 leukemia
UACC-62 melanoma = system: UACC-62 melanoma
IGROV1 ovarian = system: IGROV1 ovarian
UO-31 renal = system: UO-31 renal
HCT-15 colon = system: HCT-15 colon
SN12C renal = system: SN12C renal
HT29 colon = system: HT29 colon
OVCAR-3 ovarian = system: OVCAR-3 ovarian
K-562 leukemia = system: K-562 leukemia
786-0 renal = system: 786-0 renal
OVCAR-5 ovarian = system: OVCAR-5 ovarian
CCRF-CEM leukemia = system: CCRF-CEM leukemia
HS 578T breast = system: HS 578T breast
UACC-257 melanoma = system: UACC-257 melanoma
SK-MEL-28 melanoma = system: SK-MEL-28 melanoma
SK-MEL-5 melanoma = system: SK-MEL-5 melanoma
SF-539 CNS = system: SF-539 CNS
SF-268 CNS = system: SF-268 CNS
SK-MEL-2 melanoma = system: SK-MEL-2 melanoma
SNB-75 CNS = system: SNB-75 CNS
NCI-H23 lung = system: NCI-H23 lung
SW-620 colon = system: SW-620 colon
HCC-2998 colon = system: HCC-2998 colon
ACHN renal = system: ACHN renal
HOP-62 NSCLC = system: HOP-62 NSCLC
HL-60(TB) leukemia = system: HL-60(TB) leukemia
OVCAR-4 ovarian = system: OVCAR-4 ovarian
MDA-MB-231 breast = system: MDA-MB-231 breast
RXF 393 renal = system: RXF 393 renal
EKVX NSCLC = system: EKVX NSCLC

COc1ccc(CCn2c3c(c4c(O)cccc42)C(=O)c2ccccc2-3)cc1OC
> 83.6 µM: TGI (OVCAR-8 ovarian)
> 72.9 µM: TGI (UACC-62 melanoma)
> 87.3 µM: TGI (COLO 205 colon)
> 94.7 µM: TGI (EKVX NSCLC)
> 73.3 µM: TGI (LOX IMVI melanoma)
> 75.6 µM: TGI (SW-620 colon)
> 81.6 µM: TGI (SF-295 CNS)
43.4 µM: TGI (HCC-2998 colon)
> 57.5 µM: TGI (HCT-116 colon)
> 96.5 µM: TGI (CAKI-1 renal) | TGI (NCI-H460 lung)
69.7 µM: TGI (K-562 leukemia)
> 69.2 µM: TGI (NCI/ADR-RES ovarian)
98.6 µM: TGI (UACC-257 melanoma)
> 66.8 µM: TGI (CCRF-CEM leukemia)
> 81.9 µM: TGI (KM12 colon)
> 95.3 µM: TGI (SK-MEL-2 melanoma)
> 85.4 µM: TGI (HS 578T breast)
> 47.7 µM: TGI (BT-549 breast)
> 90.9 µM: TGI (MDA-MB-231 breast)
> 69.4 µM: TGI (786-0 renal)
> 73.4 µM: TGI (HCT-15 colon)
> 51.2 µM: TGI (SF-539 CNS)
> 70.8 µM: TGI (RPMI-8226 leukemia)
> 77.7 µM: TGI (NCI-H23 lung)
53 µM: TGI (HL-60(TB) leukemia)
> 47.4 µM: TGI (IGROV1 ovarian)
inactive: GI50 (T-47D breast) 67.9 µM | GI50 (A549 NSCLC) 32.9 µM | GI50 (SK-OV-3 ovarian) > 100 µM | GI50 (PC-3 prostate) 37.4 µM | GI50 (LOX IMVI melanoma) > 45 µM | GI50 (CAKI-1 renal) 36.3 µM | GI50 (SNB-19 CNS) > 100 µM | GI50 (NCI/ADR-RES ovarian) 21 µM | GI50 (SR leukemia) 12.9 µM | GI50 (DU-145 prostate) > 60.6 µM | GI50 (SF-295 CNS) 30.8 µM | GI50 (BT-549 breast) 6.57 µM | GI50 (MDA-MB-435) 20 µM | GI50 (A498 renal) > 100 µM | GI50 (KM12 colon) 22.1 µM | GI50 (HOP-92 NSCLC) > 72.5 µM | GI50 (OVCAR-8 ovarian) 34.3 µM | GI50 (M14 melanoma) 43.3 µM | GI50 (TK-10 renal) 28.6 µM | GI50 (U251 CNS) 41.8 µM | GI50 (HCT-116 colon) 26.1 µM | GI50 (COLO 205 colon) 29.1 µM | GI50 (RPMI-8226 leukemia) 21.2 µM | GI50 (NCI-H522 lung) 20.8 µM | GI50 (NCI-H226 lung) > 56.1 µM | GI50 (MCF7 breast) 34.8 µM | GI50 (NCI-H460 lung) 31.2 µM | GI50 (MOLT-4 leukemia) 19.9 µM | GI50 (UACC-62 melanoma) 21.5 µM | GI50 (IGROV1 ovarian) 0.818 µM | GI50 (UO-31 renal) 37.5 µM | GI50 (HCT-15 colon) 22.5 µM | GI50 (SN12C renal) 50.7 µM | GI50 (HT29 colon) 43.5 µM | GI50 (OVCAR-3 ovarian) 54.1 µM | GI50 (K-562 leukemia) 12.5 µM | GI50 (786-0 renal) 36.8 µM | GI50 (OVCAR-5 ovarian) > 42 µM | GI50 (CCRF-CEM leukemia) 20 µM | GI50 (HS 578T breast) 46.2 µM | GI50 (UACC-257 melanoma) 52.6 µM | GI50 (SK-MEL-28 melanoma) > 80.2 µM | GI50 (SK-MEL-5 melanoma) 18.8 µM | GI50 (SF-539 CNS) 6.65 µM | GI50 (SF-268 CNS) 38.9 µM | GI50 (SK-MEL-2 melanoma) 24.1 µM | GI50 (SNB-75 CNS) > 100 µM | GI50 (NCI-H23 lung) 25.3 µM | GI50 (SW-620 colon) 31.1 µM | GI50 (HCC-2998 colon) 19.5 µM | GI50 (ACHN renal) 13.6 µM | GI50 (HOP-62 NSCLC) > 35.6 µM | GI50 (HL-60(TB) leukemia) 20.3 µM | GI50 (OVCAR-4 ovarian) 71.8 µM | GI50 (MDA-MB-231 breast) 41.5 µM | GI50 (RXF 393 renal) > 79 µM | GI50 (EKVX NSCLC) 29.3 µM
> 84.4 µM: TGI (M14 melanoma)
> 52.7 µM: TGI (ACHN renal)
> 60.4 µM: TGI (NCI-H522 lung)
> 84.2 µM: TGI (OVCAR-5 ovarian)
> 60.3 µM: TGI (SK-MEL-5 melanoma)
> 74.1 µM: TGI (TK-10 renal)
> 100 µM: TGI (T-47D breast) | TGI (A549 NSCLC) | TGI (SK-OV-3 ovarian) | TGI (PC-3 prostate) | TGI (SNB-19 CNS) | TGI (DU-145 prostate) | TGI (A498 renal) | TGI (HOP-92 NSCLC) | TGI (U251 CNS) | TGI (NCI-H226 lung) | TGI (MCF7 breast) | TGI (UO-31 renal) | TGI (SN12C renal) | TGI (HT29 colon) | TGI (OVCAR-3 ovarian) | TGI (SK-MEL-28 melanoma) | TGI (SF-268 CNS) | TGI (SNB-75 CNS) | TGI (OVCAR-4 ovarian) | TGI (RXF 393 renal)
> 59.3 µM: TGI (HOP-62 NSCLC)
34 µM: TGI (SR leukemia)
63.9 µM: TGI (MOLT-4 leukemia)
> 83.7 µM: TGI (MDA-MB-435)
